Data reported in ChEMBL document CHEMBL1759909, “Discovery of 3-aryl-5-acylpiperazinyl-pyrazoles as antagonists to the NK3 receptor” (Bioorg Med Chem Lett, 2011).

Assays:
in vitro [1] = conditions: rat, liver microsomes
in vitro [2] = conditions: rat, plasma
Rattus norvegicus [3] = organism: Rattus norvegicus; conditions: in vivo, po, 3 mg/kg
in vivo [4] = conditions: Sprague-Dawley, rat, iv, 1 mg/kg
in vivo [5] = conditions: CD1, mouse, brain/plasma, ip, 5 mg/kg
Rattus norvegicus [6] = organism: Rattus norvegicus; conditions: in vivo, po, 3 mg/kg; remark: listed apart in the source
in vivo [7] = conditions: CD1, mouse, brain, ip, 5 mg/kg
in vivo [8] = conditions: Sprague-Dawley, rat
in vivo [9] = conditions: Sprague-Dawley, rat, iv, 1 mg/kg; remark: listed apart in the source
in vivo [10] = conditions: Sprague-Dawley, rat, po, 3 mg/kg
in vivo [11] = conditions: Sprague-Dawley, rat, plasma, po, 3 mg/kg

SMILES | half-life (in vitro [1]) [min] | remaining at 1 h (in vitro [2]) [%] | Vd (in vivo [4]) [L/kg] | Kp at 10 min (in vivo [5]) | concentration at 10 min (in vivo [7]) [ng/g] | half-life (in vivo [8]) [min] | clearance (in vivo [9]) [mL/min/kg] | bioavailability (in vivo [10]) [%] | AUC (in vivo [11]) [ng·h/mL] | AUC (Rattus norvegicus [3]) [ng·min/mL] | F (Rattus norvegicus [6]) [%]
COc1ccccc1N1CCN(C(=O)c2cc(-c3ccc(Cl)cc3)n(C)n2)CC1 | 40 | 100 | 3.3 | 0.64 | 1700 | 310 | – | – | – | 90501 | 53
CC[C@H](NC(=O)c1c(O)c(-c2ccccc2)nc2ccccc12)c1ccccc1 [TALNETANT] | 60 | 100 | 1.4 | 0.07 | 340 | 450 | 1.9 | 53 | 15600 | – | –
CC(=O)N(C)C1(c2ccccc2)CCN(CCC[C@]2(c3ccc(Cl)c(Cl)c3)CCCN(C(=O)c3ccccc3)C2)CC1 [OSANETANT] | 23 | – | 8.7 | 0.03 | 30 | 110 | 57 | 17 | 114 | – | –

Continued, in another order:

half-life (in vitro [1]) [min] | remaining at 1 h (in vitro [2]) [%] | Vd (in vivo [4]) [L/kg] | Kp at 10 min (in vivo [5]) | concentration at 10 min (in vivo [7]) [ng/g] | half-life (in vivo [8]) [min] | clearance (in vivo [9]) [mL/min/kg] | bioavailability (in vivo [10]) [%] | AUC (in vivo [11]) [ng·h/mL] | SMILES | AUC (Rattus norvegicus [3]) [ng·min/mL] | F (Rattus norvegicus [6]) [%]
45 | 5 | – | – | – | – | – | – | – | COc1ccccc1N1CCN(C(=O)c2cc(-c3ccc(Cl)cc3Cl)n[nH]2)CC1 | – | –
2 | 100 | – | – | – | – | – | – | – | COc1ccccc1N1CCN(C(=O)c2cc(-c3ccc(Cl)cc3)n[nH]2)[C@@H](C)C1 | – | –
